≈ marks a conversion by molar mass, not a printed value. Structures can show the parent of a compound that is named as a salt. Where two headings read alike, the source gives them in different places.
Key:
Plasmodium falciparum = assay: Malaria whole cell assay (cell culture); type: cell-based; conditions: read-out: ED50 (the source's name)
Description: (§1) Two strains of P. falcipanum are used in this study: The drug sensitive NF54 (an airport strain of unknown origin) and K1 (Thailand, chloroquine and pyrimethamine resistant). The strains are maintained in RPMI-1640 medium with 0.36 mM hypoxanthine supplemented with 25 mM HEPES, 25 mM NaHCO3, neomycin (100 U/ml) and Albumax® (lipid-rich bovine serum albumin) (GIBCO, Grand Island, N.Y.) (5 g/l), together with 5% washed human A+ erythrocytes. All cultures and assays are conducted at 37° C. under an atmosphere of 4% CO2, 3% O2 and 93% N2. Cultures are kept in incubation chambers filled with the gas mixture. Subcultures are diluted to a parasitaemia of 0.1-0.5% and the medium changed daily.
(§2) Antimalarial activity is assessed using an adaptation of the procedures described by Desjardins et al. (Antimicrob. Agents Chemother. 16(6):710-8, 1979), and Matile and Pink (In: Lefkovits, I. and Pernis, B. (Eds.). Immunological Methods. Academic Press, San Diego, pp. 221-234, 1990).
After use the stocks are kept at −20° C. The compound is further diluted to the appropriate concentration using complete medium without hypoxanthine.
Assays are performed in sterile 96-well microtiter plates, each well containing 200 μl of parasite culture (0.15% parasitemia, 2.5% hematocrit) with or without serial drug solutions. Seven 2-fold dilutions are used covering a range from 5 μg/ml to 0.078 μg/ml.
After 48 hours of incubation at 37° C., 0.5 μCi ^3H-hypoxanthine is added to each well. Cultures are incubated for a further 24 h before they are harvested onto glass-fiber filters and washed with distilled water. The radioactivity is counted using a Betaplate™ liquid scintillation counter (Wallac, Zurich, Switzerland). […] From the sigmoidal inhibition curves IC50 values are calculated.
K1 strain is used. The compounds are tested at 7 concentrations (5000 to 78 ng/ml). Artemisinin and chloroquine are included as reference drugs.

[1] = biological target: T1, Plasmodium falciparum dUTPase (Plasmodium falciparum, UniProt Q8II92); assay: Malaria enzyme assay: inhibition of Plasmodium falciparum dUTPase; type: biochemical
T1 construct: made in house; host or cells: E. coli BL21 (DE3)
T1 sequence (Q8II92 1-173): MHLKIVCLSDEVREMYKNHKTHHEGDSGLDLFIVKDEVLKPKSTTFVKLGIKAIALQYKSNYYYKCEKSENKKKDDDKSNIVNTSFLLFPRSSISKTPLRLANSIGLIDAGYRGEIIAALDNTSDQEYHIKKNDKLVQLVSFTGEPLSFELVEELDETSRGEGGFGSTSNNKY
Description: Inhibition of Plasmodium falciparum dUTPase
2′-dUTP, was purchased from Pharmacia. MgCl2, BSA, and the pH indicator cresol red were from Sigma. The buffer N,N-bis(2-hydroxyethyl)glycine (BICINE) was obtained from USB (United States Biochemical), Ohio. All the concentrations of nucleotides were calculated spectrophotometrically (HP-8453, Hewlett Packard) at 280 nm, using the extinction coefficient (ε280 nm=1.75 ml mg^−1cm^−1). Other chemicals used in these experiments were of the highest quality available.
Recombinant P. falciparum dUTPase was purified from E. coli BL21 (DE3) cells transformed with pET-PFdut. Pellets from a liter of culture were resuspended in a solution consisting of buffer A (20 mM MES pH 5.5, 50 mM NaCl, 1 mM DTT) plus the protease inhibitors 1 mM PMSF, 20 μg/ml leupeptin and 1 mM benzamidine. Purification was carried out in a cold room (4° C.). The soluble crude extract was obtained by sonication in a Vibra-cell (Sonics and Materials Inc. Danbury, Conn., USA) and centrifugation at 14000×g. The extract was loaded onto a phosphocellulose column (Whatman) pre-equilibrated with buffer A at a flow rate of 1 ml/min. After washing the column with 100 ml of buffer A, elution was performed using a linear NaCl gradient of 50 to 1000 mM. Peak fractions with a low concentration of contaminating protein, as judged by 15% SDS-PAGE gels, were pooled and then loaded and chromatographed on a Superdex 200 column at a flow rate of 0.5 ml/min. The column was equilibrated with buffer B (50 mM Bicine, 1 mM DTT, 10 mM MgCl2). Peak fractions were pooled and concentrated to about 5 mg/ml by ultrafiltration in a Centripep tube (Amicon) and stored at −80° C.
Nucleotide hydrolysis was monitored by mixing enzyme and substrate with a rapid kinetic accessory (Hi-Tech Scientific) attached to a spectrophotometer (Cary 50) and connected to a computer for data acquisition and storage. Protons, released through the hydrolysis of nucleotides, were neutralised by a pH indicator in a weak buffered medium with similar pKa and monitored spectrophotometrically at the absorbance peak of the basic form of the indicator. Absorbance changes were kept within 0.1 units. The indicator/buffer pair used was cresol red/BICINE ([…], pH 8, 573 nm). The measurements were performed at 25° C., and the solutions were previously degassed. Assays contained 30 nM purified recombinant enzyme, 50 μM dUTP, 5 mM MgCl2 and 2.5 mM DTT, 1.25 mg/ml BSA and 100 mM KCl. Indicator absorbance changes corresponding to complete hydrolysis of nucleotides were recorded in the computer, and the kinetic parameters Vmax and Kmapp (or slope) were calculated by fitting the data to the integrated Michaelis-Menten equation (Segel, 1975). [dUMP]/t=Vmax−Kmap/t ln [dUTP]([dUTP]−[dUMP])
Solutions of potential inhibitors were prepared at 10 mg/ml and tested routinely at concentrations of […]. A wider range of concentrations was further tested when necessary for Ki determination. The different apparent Km values attained were plotted against inhibitor concentration and Ki values were obtained according to the following equation: […]

P. falciparum K1 = assay: Malaria whole cell assay, K1 strain; type: cell-based; conditions: Plasmodium falciparum
Description: as §1, §2
(§3) After use the stocks are kept at −20° C. The compound is further diluted to the appropriate concentration using complete medium without hypoxanthine. […]
(§4) After 48 hours of incubation at 37° C., 0.5 μCi ^3H-hypoxanthine is added to each well. […] The radioactivity is counted using a Betaplate™ liquid scintillation counter (Wallac, Zurich, Switzerland). […] From the sigmoidal inhibition curves IC50 values are calculated. […]

P. falciparum NF54 = assay: Malaria whole cell assay, NF54 strain; type: cell-based; conditions: Plasmodium falciparum
Description: as §1, §2, §3, §4

[2] = Plasmodium falciparum enzyme, read-out: Ki

Row | melting point [°C] | Compound | EC50 (Plasmodium falciparum) [µM] | Ki [1, 2] [µM] | Ki [1] [µM] | other results
1 | – | CC(C)(C)[Si](OCC1C=CC(n2ccc(=O)[nH]c2=O)O1)(c1ccccc1)c1ccccc1 (stereo not shown) [drawing 57 TBDPSO, 5′-O-tert-butyldiphenylsilyl-2′,3′-dideoxydidehydrouridine] | 3 | 1.2 | – | –
2 | – | O=c1ccn([C@H]2C[C@H](O)[C@@H](CO[Si](c3ccccc3)(c3ccccc3)c3ccccc3)O2)c(=O)[nH]1 [drawing 55 TPSO, 5′-O-Triphenylsilyl-2′-deoxyuridine] | 1.1 | 2.8 | – | –
3 | – | O=c1ccn([C@H]2C[C@H](F)[C@@H](CO[Si](c3ccccc3)(c3ccccc3)c3ccccc3)O2)c(=O)[nH]1 [drawing 58 TPSO, 3′-Fluoro-5′-O-triphenylsilyl-2′,3′-dideoxyuridine] | 1 | – | 975 | –
4 | – | O=c1ccn([C@H]2C[C@H](F)[C@@H](CNC(c3ccccc3)(c3ccccc3)c3ccccc3)O2)c(=O)[nH]1 [drawing 58 Ph3NH, 3′-Fluoro-5′-tritylamino-2′,3′,5′-trideoxyuridine] | 5.3 | – | 12 | –
5 | 140 to 142 | COc1ccc(C(NC[C@H]2O[C@@H](n3ccc(=O)[nH]c3=O)CC2O)(c2ccccc2)c2ccccc2)cc1 (stereo partly shown) (as salt: salt) [Example 23, 5′-paraMethoxytritylamino-2′,5′-dideoxyuridine] | – | – | – | –
6 | – | O=c1ccn([C@H]2C[C@H](O)[C@@H](COC(c3ccccc3)(c3ccccc3)c3ccccc3)O2)c(=O)[nH]1 [drawing 55 Ph3CO, 5′-O-trityl-2′-deoxyuridine] | 6 | 1.8 | – | –
7 | – | CC(C)(C)[Si](C)(C)OC1CC(n2ccc(=O)[nH]c2=O)OC1COC(c1ccccc1)(c1ccccc1)c1ccccc1 (stereo not shown) [drawing 56 Ph3CO, 1-[4-(tert-Butyl-dimethyl-silanyloxy)-5-trityloxymethyl-tetrahydro-furan-2-yl]-1H pyrimidine-2,4-dione] | 1 | – | 515 | –
8 | 117 to 119 | O=c1ccn(C2CC(O)C(CNC3(c4ccccc4)c4ccccc4Oc4ccccc43)O2)c(=O)[nH]1 (stereo not shown) [Example 26, 5′-Pixylamino-2′,5′-dideoxyuridine] | – | – | – | –
9 | – | O=c1ccn([C@H]2C=C[C@@H](CO[Si](c3ccccc3)(c3ccccc3)c3ccccc3)O2)c(=O)[nH]1 [drawing 57 TPSO, 5′-Triphenylsilyloxy-2′,3′-dideoxydidehydrouridine] | 1 | – | 1.3 | –
10 | – | O=c1ccn([C@H]2C[C@H](O)[C@@H](CNC(c3ccccc3)(c3ccccc3)c3ccccc3)O2)c(=O)[nH]1 [drawing 55 Ph3CNH, 5′-Tritylamino-2′,5′-dideoxyuridine] | 4.5 | 0.2 | – | –
11 | 160 to 163 | N#Cc1ccc(C(NC[C@H]2O[C@@H](n3ccc(=O)[nH]c3=O)C[C@@H]2O)(c2ccccc2)c2ccccc2)cc1 [Example 22, 5′-[(4-cyanotrityl)amino]-2′,5′-dideoxyuridine] | – | – | – | –
12 | 96 to 97 | COc1ccc(C(OC[C@H]2O[C@@H](n3ccc(=O)[nH]c3=O)CC2O)(c2ccccc2)c2ccccc2)cc1 (stereo partly shown) [Example 20, 5′-O-paramethoxytrityl-2′-deoxyuridine] | – | – | – | –
13 | – | CCN(CC)CCCC(C)Nc1ccnc2cc(Cl)ccc12 (stereo not shown) [chloroquine] | – | – | – | IC50 (P. falciparum K1; K1): 48 ng/mL (≈ 150 nM); IC50 (P. falciparum NF54; NF54): 2.9 ng/mL (≈ 9.07 nM)
14 | – | O=c1ccn([C@H]2C[C@H](F)[C@@H](COC(c3ccccc3)(c3ccccc3)c3ccccc3)O2)c(=O)[nH]1 [drawing 58 Ph3CO, 3′-Fluoro-5′-O-trityl-2′,3′-dideoxyuridine] | 2 | 5 | – | –
15 | – | CC(C)(C)[Si](C)(C)OC1C[C@H](n2ccc(=O)[nH]c2=O)O[C@@H]1CNC(c1ccccc1)(c1ccccc1)c1ccccc1 (stereo partly shown) [drawing 56 Ph3NH, 3′-O-tertbutyldimethylsilyl-5′-Tritylamino-2′,5-dideoxyuridine] | 1.8 | – | 313 | –
16 | 131 to 133 | O=c1ccn(C2CC(O)C(CNC(c3ccccc3)(c3ccccc3)c3ccncc3)O2)c(=O)[nH]1 (stereo not shown) [Example 8, 5′-(4-pyridydiphenylmethyl)amino-2′,5′-dideoxyuridine] | – | – | – | –
17 | – | CC(C)(C)[Si](OC[C@H]1O[C@@H](n2ccc(=O)[nH]c2=O)CC1F)(c1ccccc1)c1ccccc1 (stereo partly shown) [drawing 58 TBDPSO, 3′-Fluoro-5′-O-tert-Butyidiphenylsilyl-2′,3′-dideoxyuridine] | 8.8 | – | 89 | –
18 | 129 to 131 | O=c1ccn([C@H]2C[C@H](O)[C@@H](CNC(c3ccccc3)(c3ccccc3)c3ccccc3Cl)O2)c(=O)[nH]1 [Example 24, 5′-[(2-chlorotrityl)amino]2′,5′-dideoxyuridine] | – | – | – | –
19 | – | C[C@@H]1CC[C@H]2[C@@H](C)C(=O)O[C@@H]3O[C@@]4(C)CC[C@@H]1[C@]32OO4 [artemisinin] | – | – | – | IC50 (P. falciparum K1; K1 strain, read-out: IC50): 0.8 ng/mL (≈ 2.83 nM); IC50 (P. falciparum NF54; NF54 strain, read-out: IC50): 1.9 ng/mL (≈ 6.73 nM)
20 | – | CC(C)(C)[Si](OC[C@H]1O[C@@H](n2ccc(=O)[nH]c2=O)C[C@@H]1O)(c1ccccc1)c1ccccc1 [drawing 55 TBDPSO, 5′-O-tert-Butyldiphenylsilyl-2′-deoxyuridine] | 6.6 | 4.2 | – | –

Source: patent publication US7601702B2, “Dutpase Inhibitors” (Medivir AB, priority 2004, dated 2009)
